“Also recorded” adds a separate entry of the source.
What was measured:
[1] = molecular target: EGFR (Homo sapiens, UniProt P00533); assay: In vitro tyrosine kinase assay (ELISA, GST kinase, polyGlu,Tyr 4:1 acceptor); format: biochemical; conditions: read-out: inhibition (−) or stimulation (+) of kinase activity relative to the control; for inhibition at 1 µg/mL: inhibitor 1 μg/ml; for inhibition at 10 µg/mL: inhibitor 10 μg/ml
Protocol: (§1) The inhibition of various receptor tyrosine kinases in vitro by MAE87, MAE106 and MAZ51 was investigated. The inhibitors were investigated in 2 different concentrations (1 μg/ml and 10 μg/ml). The inhibition is stated in %. “+”=stimulation of kinase activity relative to the control,
(§2) “−”=inhibition of kinase activity relative to the control.
(§3) The activity of the RTK inhibitors were determined with the aid of an ELISA. In this assay, the corresponding kinases were employed as recombinant GST fusion proteins (glutathione S-transferase). Synthetic polyGlu, Tyr 4:1 is used as acceptor. The ability of different concentrations of the test substances to inhibit the RTK-mediated phosphorylation of the abovementioned acceptor was assessed. All the tests were carried out in duplicate.
(§4) ELISA plates were coated with 0.2 mg/ml of polyGlu, Tyr 4:1 in 100 mM bicarbonate buffer (pH 9.6) overnight. This solution was removed and the microtiter plates were washed twice with TBS buffer (10 mM Tris-HCl, pH 8.1, 100 mM NaCl) and then blocked with 5% BSA/TBS for 30 min. 50 μl of test substance (2 or 20 μg/ml in 10% DMSO), 25 μl of GST kinase in 4× kinase buffer (200 mM HEPES, 100 mM NaCl, 80 μM Na3VO4 and 0.04% BSA) were introduced. The reaction was started by adding 25 μl of 160 μM ATP (in 40 mM MnCl2) as substrate of the kinases. The final concentrations of the test compounds is thus 1 or 10 μg/ml in 5% DMSO. The GST fusion proteins were employed in the following concentrations. VEGFR-2 50 NG/well, VEGFR-3 300 ng/well, Tie2 300 ng/well, EGFR 50 ng/well, ErbB2 200 ng/well, IGF-1R 50 ng/well, FGFR1 200 ng/well. The reaction mixture was incubated at 30° C. for 90 min. The kinase reaction was stopped by adding 50 μl of 30 mM EDTA/well. The microtiter plates were washed twice with 0.05% Tween20/TBS. Anti-phosphotyrosine antibody (1:500) was added in 0.05% Tween20/TBS (with 0.5% BSA, 0.025% skimmed milk powder and 100 μM Na3VO4) and incubated at 37° C. for 1 h. The microtiter plates were washed three times with 0.05% Tween20/TBS. The HRP-conjugated detection autibody (1:1000) was added in 0.05% Tween20/TBS (with 0.5% BSA, 0.025% skimmed milk powder and 100 μM Na3VO4) and incubated at 37° C. for 1 h. The microtiter plates were washed three times with 0.05% Tween20/TBS. ABTS (2,2′-azino-di-(3-ethylbenz-thiazoline-6-sulfonate)) substrate (Roche Diagnostics GmbH, Mannheim) was added. The OD was determined at 405 nm using an ELISA reader.

[2] = molecular target: IGF1R (Homo sapiens, UniProt P08069); assay: as above; format: biochemical; conditions: read-out: inhibition (−) or stimulation (+) of kinase activity relative to the control; for inhibition at 1 µg/mL: inhibitor 1 μg/ml; for inhibition at 10 µg/mL: inhibitor 10 μg/ml
Protocol: as §1, §2, §3, §4

[3] = molecular target: Tie2 (Homo sapiens, UniProt Q02763); assay: as above; format: biochemical; conditions: read-out: inhibition (−) or stimulation (+) of kinase activity relative to the control; for inhibition at 1 µg/mL: inhibitor 1 μg/ml; for inhibition at 10 µg/mL: inhibitor 10 μg/ml
Protocol: as §1, §2, §3, §4

[4] = molecular target: FGFR1 (Homo sapiens, UniProt P11362); assay: as above; format: biochemical; conditions: read-out: inhibition (−) or stimulation (+) of kinase activity relative to the control; for inhibition at 1 µg/mL: inhibitor 1 μg/ml; for inhibition at 10 µg/mL: inhibitor 10 μg/ml
Protocol: as §1, §2, §3, §4

[5] = molecular target: VEGFR-2 (Homo sapiens, UniProt P35968); assay: as above; format: biochemical; conditions: read-out: inhibition (−) or stimulation (+) of kinase activity relative to the control; for inhibition at 1 µg/mL: inhibitor 1 μg/ml; for inhibition at 10 µg/mL: inhibitor 10 μg/ml
Protocol: as §1, §2, §3, §4

[6] = molecular target: ErbB2 (Homo sapiens, UniProt P04626); assay: as above; format: biochemical; conditions: read-out: inhibition (−) or stimulation (+) of kinase activity relative to the control; for inhibition at 1 µg/mL: inhibitor 1 μg/ml; for inhibition at 10 µg/mL: inhibitor 10 μg/ml
Protocol: as §1, §2, §3, §4

[7] = molecular target: VEGFR-3 (Homo sapiens, UniProt P35916); assay: as above; format: biochemical; conditions: read-out: inhibition (−) or stimulation (+) of kinase activity relative to the control; for inhibition at 1 µg/mL: inhibitor 1 μg/ml; for inhibition at 10 µg/mL: inhibitor 10 μg/ml
Protocol: as §1, §2, §3, §4

[8] = test system: rat carcinoma cell lines; assay: Apoptosis in rat tumor cell lines, nucleosome ELISA; format: cell-based; conditions: 2.5 μM or 10 μM, 24 h, FIG. 6
Protocol: Cells of the rat tumor cell line (Nestl et al., 2001, Cancer Research 61: 1569-1577) were cultivated in the presence of 1% DMSO (solvent control), 2.5 μM or 10 μM of the indolinone for 24 h. Apoptosis was quantified with the aid of anti-DNA peroxidase antibody. The amount of dye produced in the chromogenic reaction catalyzed by the peroxidase was measured by photometry at 405 nm and correlated with the amount of apoptosis-associated cytoplasmic mono- and oligonucleosomes. The data are stated in % apoptosis relative to the cells of the solvent control (% relative to control) (FIG. 6).
FIG. 6: Nucleosome ELISA test (Cell Death Detection ELISA). The extent of dead cells of the respective rat tumor cell line is depicted (apoptosis in %) in relation to the use of the inhibitors MAE87, MAE106 and MAZ51.

[9] = test system: rat tumor cell lines (ASML, 1AS, G, AT6.1, MTLN3, MTLY, NM081 and MT450); assay: Tumor cell proliferation, 3H-thymidine incorporation; format: cell-based; conditions: 2.5 μM or 10 μM, 24 h, FIG. 4
Protocol: Cells of the rat tumor cell line (Nestl et al., 2001, Cancer Research 61: 1569-1577) were cultivated in the presence of 1% DMSO (solvent control), 2.5 μM or 10 μM of the indolinone for 24 h. Tritiated thymidine was added to the medium during the last 4-6 h of incubation. The cells were harvested and the amount of radioactivity incorporated into the DNA was quantified.
The data are stated in percent relative to the proliferation of the cells treated only with DMSO (% relative to control; see FIG. 4)).
FIG. 4: Measurement of the (^3H)-thymidine incorporation (in %) into rat tumor cell lines (ASML, 1AS, G, AT6.1, MTLN3, MTLY, NM081 and MT450) as a function of the concentration of inhibitors employed. The inhibition of cell proliferation by MAE87, MAE106 and MAZ51 is dose-dependent.

[10] = test system: chorioallantoic membrane (CAM); assay: Chorioallantoic membrane (CAM) angiogenesis assay; format: in vivo; conditions: chick embryos, 100 μg of inhibitor on methylcellulose disk, day 5 to day 7; FIG. 3
Protocol: The chorioallantoic membrane (CAM) assay was carried out as described (Wernert et al.) with chick embryos 5 days after fertilization. Methylcellulose disks (diameter 2 mm) with 100 μg of inhibitor were applied to the CAMs. Evaluation took place on day 7. A. negative control B. MAE 106-treated egg.
FIG. 3: Inhibition of angiogenesis in a chorioallantoic membrane (CAM). A: sham-treated cells (control). B: Mae106-treated cells of the CAM.

Sequence of ErbB2 (P04626 23-1255): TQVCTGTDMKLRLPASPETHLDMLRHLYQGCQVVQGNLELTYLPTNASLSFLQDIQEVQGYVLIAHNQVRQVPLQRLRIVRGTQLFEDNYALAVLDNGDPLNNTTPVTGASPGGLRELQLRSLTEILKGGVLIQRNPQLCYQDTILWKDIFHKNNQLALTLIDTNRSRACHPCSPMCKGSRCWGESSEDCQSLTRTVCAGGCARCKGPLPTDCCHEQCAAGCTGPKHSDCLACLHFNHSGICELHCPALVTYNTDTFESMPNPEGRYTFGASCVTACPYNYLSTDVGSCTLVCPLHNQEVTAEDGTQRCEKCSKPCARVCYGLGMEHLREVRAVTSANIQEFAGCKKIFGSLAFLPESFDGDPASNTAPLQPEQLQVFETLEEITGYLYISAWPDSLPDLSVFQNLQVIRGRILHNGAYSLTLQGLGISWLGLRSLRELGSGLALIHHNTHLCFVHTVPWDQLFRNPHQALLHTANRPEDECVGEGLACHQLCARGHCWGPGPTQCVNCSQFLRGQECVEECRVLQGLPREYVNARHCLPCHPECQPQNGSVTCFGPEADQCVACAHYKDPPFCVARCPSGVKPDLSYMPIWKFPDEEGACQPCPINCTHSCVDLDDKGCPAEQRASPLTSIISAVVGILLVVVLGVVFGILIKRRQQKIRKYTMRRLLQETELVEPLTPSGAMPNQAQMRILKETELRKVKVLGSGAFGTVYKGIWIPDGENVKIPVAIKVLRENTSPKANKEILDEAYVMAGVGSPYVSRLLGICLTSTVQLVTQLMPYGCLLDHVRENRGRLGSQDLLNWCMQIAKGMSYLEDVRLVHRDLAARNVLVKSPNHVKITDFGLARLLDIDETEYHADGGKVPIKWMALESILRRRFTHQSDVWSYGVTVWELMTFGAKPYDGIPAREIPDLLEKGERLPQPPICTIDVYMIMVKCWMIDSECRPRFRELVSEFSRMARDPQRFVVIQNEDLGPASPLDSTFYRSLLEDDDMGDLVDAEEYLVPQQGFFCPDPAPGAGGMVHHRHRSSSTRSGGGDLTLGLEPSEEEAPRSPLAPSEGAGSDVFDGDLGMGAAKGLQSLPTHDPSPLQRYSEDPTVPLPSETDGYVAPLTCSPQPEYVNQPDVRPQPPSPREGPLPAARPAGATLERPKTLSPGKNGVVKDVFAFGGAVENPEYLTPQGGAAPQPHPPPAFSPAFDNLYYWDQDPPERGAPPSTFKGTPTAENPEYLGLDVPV
Sequence of VEGFR-3 (P35916 25-1363): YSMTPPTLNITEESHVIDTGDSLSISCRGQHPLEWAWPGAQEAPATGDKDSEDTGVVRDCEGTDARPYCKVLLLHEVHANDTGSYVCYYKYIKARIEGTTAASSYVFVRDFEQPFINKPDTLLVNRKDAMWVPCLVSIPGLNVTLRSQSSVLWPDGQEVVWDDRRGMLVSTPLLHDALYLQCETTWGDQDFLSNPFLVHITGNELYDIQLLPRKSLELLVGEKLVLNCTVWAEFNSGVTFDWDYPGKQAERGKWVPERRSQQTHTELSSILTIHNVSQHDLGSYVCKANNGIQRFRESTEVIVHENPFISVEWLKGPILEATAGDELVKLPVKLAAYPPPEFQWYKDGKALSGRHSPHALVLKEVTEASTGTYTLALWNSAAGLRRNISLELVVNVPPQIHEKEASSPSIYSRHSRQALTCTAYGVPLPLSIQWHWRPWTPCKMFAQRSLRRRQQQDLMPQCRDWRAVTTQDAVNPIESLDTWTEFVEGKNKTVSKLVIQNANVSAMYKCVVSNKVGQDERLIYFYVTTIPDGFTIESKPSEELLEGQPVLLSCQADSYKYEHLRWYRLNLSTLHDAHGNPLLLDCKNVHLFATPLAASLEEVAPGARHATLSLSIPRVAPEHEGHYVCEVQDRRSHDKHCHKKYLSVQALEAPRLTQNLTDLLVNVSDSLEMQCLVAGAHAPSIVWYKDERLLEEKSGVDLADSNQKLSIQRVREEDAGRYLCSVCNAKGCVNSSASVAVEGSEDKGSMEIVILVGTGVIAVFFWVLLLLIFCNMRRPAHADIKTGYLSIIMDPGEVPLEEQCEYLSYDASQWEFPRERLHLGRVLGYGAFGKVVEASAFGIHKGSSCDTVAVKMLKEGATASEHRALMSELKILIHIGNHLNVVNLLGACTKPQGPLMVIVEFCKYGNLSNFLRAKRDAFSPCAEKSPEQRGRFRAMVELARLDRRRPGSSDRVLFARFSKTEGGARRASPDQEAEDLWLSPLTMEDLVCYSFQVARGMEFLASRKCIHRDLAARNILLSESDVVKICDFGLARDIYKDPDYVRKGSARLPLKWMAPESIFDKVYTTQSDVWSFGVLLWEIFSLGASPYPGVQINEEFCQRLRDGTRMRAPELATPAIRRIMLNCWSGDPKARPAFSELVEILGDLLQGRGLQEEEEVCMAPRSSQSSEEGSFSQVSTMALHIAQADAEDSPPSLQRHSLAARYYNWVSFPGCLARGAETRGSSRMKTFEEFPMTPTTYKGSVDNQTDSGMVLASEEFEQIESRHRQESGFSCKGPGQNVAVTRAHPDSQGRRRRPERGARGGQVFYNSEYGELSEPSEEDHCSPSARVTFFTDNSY
Sequence of FGFR1 (P11362 22-822): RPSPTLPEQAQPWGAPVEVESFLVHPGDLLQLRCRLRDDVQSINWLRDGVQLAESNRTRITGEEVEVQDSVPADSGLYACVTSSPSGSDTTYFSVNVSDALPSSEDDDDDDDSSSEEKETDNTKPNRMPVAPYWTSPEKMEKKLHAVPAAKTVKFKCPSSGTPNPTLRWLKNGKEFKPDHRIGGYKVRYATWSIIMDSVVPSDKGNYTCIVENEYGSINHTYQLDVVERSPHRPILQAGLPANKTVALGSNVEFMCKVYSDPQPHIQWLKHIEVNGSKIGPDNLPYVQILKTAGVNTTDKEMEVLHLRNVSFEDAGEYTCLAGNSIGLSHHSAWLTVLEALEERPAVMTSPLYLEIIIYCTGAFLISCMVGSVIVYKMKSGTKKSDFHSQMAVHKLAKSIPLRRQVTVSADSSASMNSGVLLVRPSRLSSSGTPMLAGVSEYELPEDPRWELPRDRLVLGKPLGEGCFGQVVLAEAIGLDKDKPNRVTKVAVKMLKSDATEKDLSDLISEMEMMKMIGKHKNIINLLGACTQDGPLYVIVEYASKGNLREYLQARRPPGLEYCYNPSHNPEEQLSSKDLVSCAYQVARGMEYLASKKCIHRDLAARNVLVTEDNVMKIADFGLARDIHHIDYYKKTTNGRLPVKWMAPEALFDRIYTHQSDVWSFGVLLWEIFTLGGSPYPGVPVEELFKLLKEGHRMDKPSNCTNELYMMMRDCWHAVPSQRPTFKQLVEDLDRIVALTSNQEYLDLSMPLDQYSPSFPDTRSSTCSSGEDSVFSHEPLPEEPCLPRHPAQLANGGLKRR
Sequence of IGF1R (P08069 31-1367): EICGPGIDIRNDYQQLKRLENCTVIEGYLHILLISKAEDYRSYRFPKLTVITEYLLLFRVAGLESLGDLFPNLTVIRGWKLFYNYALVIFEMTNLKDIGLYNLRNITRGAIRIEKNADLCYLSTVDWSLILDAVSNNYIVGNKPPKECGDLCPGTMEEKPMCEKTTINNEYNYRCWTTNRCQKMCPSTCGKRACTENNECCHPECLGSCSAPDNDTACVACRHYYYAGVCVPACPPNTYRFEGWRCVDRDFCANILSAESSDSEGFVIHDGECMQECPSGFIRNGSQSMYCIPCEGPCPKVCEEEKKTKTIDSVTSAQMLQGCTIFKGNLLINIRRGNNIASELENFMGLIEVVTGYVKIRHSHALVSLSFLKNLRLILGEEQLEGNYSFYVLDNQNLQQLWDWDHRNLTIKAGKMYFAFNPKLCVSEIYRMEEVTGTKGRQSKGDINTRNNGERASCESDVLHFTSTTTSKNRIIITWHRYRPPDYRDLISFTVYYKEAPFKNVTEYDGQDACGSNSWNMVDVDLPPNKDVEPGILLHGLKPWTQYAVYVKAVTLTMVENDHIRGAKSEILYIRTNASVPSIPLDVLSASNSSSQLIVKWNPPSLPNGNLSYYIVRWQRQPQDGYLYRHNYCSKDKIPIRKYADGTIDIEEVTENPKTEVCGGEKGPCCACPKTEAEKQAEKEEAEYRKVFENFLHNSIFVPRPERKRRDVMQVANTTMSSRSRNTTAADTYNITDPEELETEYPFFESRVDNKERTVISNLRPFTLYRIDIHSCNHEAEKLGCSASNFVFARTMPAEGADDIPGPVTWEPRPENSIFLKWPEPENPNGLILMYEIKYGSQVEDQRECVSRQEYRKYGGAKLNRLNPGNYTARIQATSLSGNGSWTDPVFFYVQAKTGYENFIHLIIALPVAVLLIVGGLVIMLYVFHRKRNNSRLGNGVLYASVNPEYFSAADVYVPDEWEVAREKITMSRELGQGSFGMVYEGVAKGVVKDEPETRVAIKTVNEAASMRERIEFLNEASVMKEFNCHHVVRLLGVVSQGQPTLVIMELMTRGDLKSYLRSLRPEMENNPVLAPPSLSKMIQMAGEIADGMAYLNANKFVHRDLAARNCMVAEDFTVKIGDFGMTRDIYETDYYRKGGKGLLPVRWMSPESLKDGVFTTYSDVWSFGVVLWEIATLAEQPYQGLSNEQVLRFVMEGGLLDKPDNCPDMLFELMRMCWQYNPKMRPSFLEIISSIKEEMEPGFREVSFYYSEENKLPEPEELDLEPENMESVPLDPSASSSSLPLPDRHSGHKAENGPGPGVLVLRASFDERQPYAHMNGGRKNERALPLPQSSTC

inhibition at 1 µg/mL [1] [%]	inhibition at 10 µg/mL [1] [%]	inhibition at 1 µg/mL [2] [%]	inhibition at 10 µg/mL [2] [%]	inhibition at 1 µg/mL [3] [%]	inhibition at 10 µg/mL [3] [%]	inhibition at 1 µg/mL [4] [%]	inhibition at 10 µg/mL [4] [%]	inhibition at 1 µg/mL [5] [%]	inhibition at 10 µg/mL [5] [%]	inhibition at 1 µg/mL [6] [%]	inhibition at 10 µg/mL [6] [%]	inhibition at 1 µg/mL [7] [%]	inhibition at 10 µg/mL [7] [%]	SMILES	induction of apoptosis (% relative to solvent control) [8]	inhibition of tumor cell proliferation (3H-thymidine incorporation, % relative to control) [9]	inhibition of angiogenesis (network of blood vessels) in the CAM [10]
5	64	10	71	5	28	-5	1	-21	58	-4	41	-1	57	COc1ccc(C=C2C(=O)Nc3ccccc32)cc1F [MAE106, 3-(3-Fluoro-4-methoxybenzylidene)-1,3-dihydroindole-2-one]	induce cell death	dose-dependent	highly underdeveloped
70	86	63	94	-1	65	50	94	46	77	45	84	9	74	O=C1Nc2ccccc2C1=Cc1ccc(O)cc1O [MAE87, 3-(2,4-Dihydroxybenzylidene)-1,3-dihydroindol-2-one]	induce cell death	dose-dependent	Inhibit Angiogenesis
25	58	10	68	7	27	-1	5	8	74	11	39	4	35	CN(C)c1ccc(C=C2C(=O)Nc3ccccc32)c2ccccc12 [MAZ51, 3-(4-Dimethylaminonaphthalen-1-ylmethylene)-1,3-dihydroindol-2-one]	most potent apoptosis inducer; also recorded: induce cell death	greatest inhibitory effect; also recorded: dose-dependent	Inhibit Angiogenesis
